Results reported in US10370401B2, “Substituted nucleosides, nucleotides and analogs thereof” (Alios BioPharma, Inc., priority 2013, dated 2019).

test system: Human rhinovirus 1B; assay: Picornavirus assay (CPE, CellTiter-Glo, HeLa-OHIO cells); format: cell-based; conditions: Rhinovirus A, 96 h

SMILES	EC50 [µM]
CC(C)OC(=O)[C@H](C)NP(=O)(OC[C@@]1(F)O[C@@H](n2ccc(=O)[nH]c2=O)[C@](C)(O)[C@@H]1O)Oc1ccccc1 (stereo partly shown) [Compound 5]	10 to 100
C[C@H](NP(=O)(OC[C@@]1(F)O[C@@H](n2cnc3c(=O)[nH]c(N)nc32)[C@](C)(O)[C@@H]1O)Oc1ccccc1)C(=O)OC1CCCCC1 (stereo partly shown) [Compound 7]	1 to 10
C[C@H](NP(=O)(OC[C@@]1(F)O[C@@H](n2ccc(=O)[nH]c2=O)[C@](C)(O)[C@@H]1O)Oc1ccccc1)C(=O)OC1CCCCC1 (stereo partly shown) [Compound 8]	1 to 10
CCOc1nc(NC=O)nc2c1ncn2[C@@H]1O[C@](F)(COP(=O)(N[C@@H](C)C(=O)OC2CCCCC2)Oc2ccccc2)[C@@H](F)[C@@]1(C)O (stereo partly shown) [Compound 17]	10 to 100
CCOc1nc(N)nc2c1ncn2[C@@H]1O[C@](F)(COP(=O)(N[C@@H](C)C(=O)OCC(C)(C)C)Oc2ccccc2)[C@@H](O)[C@@]1(C)O (stereo partly shown) [Compound 33]	< 1
CC(C)OC(=O)[C@H](C)NP(=O)(OC[C@@]1(F)O[C@@H](n2ccc(=O)[nH]c2=O)[C@](C)(O)[C@@H]1O)Oc1cccc2ccccc12 (stereo partly shown) [Compound 150]	1 to 10
CC(C)OC(=O)[C@H](C)NP(=O)(OC[C@@]1(F)O[C@@H](n2ccc(=O)[nH]c2=O)[C@](C)(O)[C@@H]1O)Oc1ccc(Cl)cc1 (stereo partly shown) [Compound 152]	1 to 10
CC(=O)O[C@H]1[C@@](C)(O)[C@H](n2ccc(=O)[nH]c2=O)O[C@]1(F)COP(=O)(N[C@@H](C)C(=O)OC(C)C)Oc1ccc(Cl)cc1 (stereo partly shown) [Compound 153]	1 to 10

same assay, conditions: Rhinovirus A, 96 h; Human rhinovirus 1B, HeLa-OHIO cells, 4 d at 33° C.; read-out: EC50

EC50 [µM]	SMILES
1 to 10	CC[C@]1(CO)O[C@@H](n2ccc(N)nc2=O)C(F)(F)[C@@H]1O [Compound 1]
10 to 100	C[C@]1(F)[C@H](n2ccc(N)nc2=O)O[C@](F)(CO)[C@H]1O [Compound 18]
10 to 100	C[C@@]1(O)[C@H](O)[C@](CO)(CF)O[C@H]1n1ccc(N)nc1=O [Compound 40]
10 to 100	COCC(COC)OC(=O)OCOP(=O)(OCOC(=O)OC(COC)COC)OC[C@@]1(CF)O[C@@H](n2ccc(=O)[nH]c2=O)[C@](C)(O)[C@@H]1O [Compound 66]
1 to 10	Nc1ccn([C@@H]2O[C@@](CO)(CCl)[C@@H](O)C2(F)F)c(=O)n1 [Compound 69]
1 to 10	CCOc1nc(N)nc2c1ncn2[C@@H]1O[C@]2(F)CO[P@@](=O)(OC(C)C)O[C@H]2[C@@]1(C)F [Compound 87]
< 1	CC(C)(C)C(=O)OCOP(=O)(OCOC(=O)C(C)(C)C)OC[C@@]1(F)O[C@@H](n2ccc(=O)[nH]c2=O)[C@](C)(O)[C@@H]1O [Compound 151]
10 to 100	CC(C)OC(=O)OCOP1(=O)OC[C@@]2(CF)O[C@@H](n3ccc(=O)[nH]c3=O)[C@](C)(O)[C@@H]2O1 (stereo partly shown) [Compound 158]
10 to 100	CC(C)OC(=O)OC(C)OP(=O)(OC[C@@]1(CF)O[C@@H](n2ccc(=O)[nH]c2=O)[C@](C)(O)[C@@H]1O)OC(C)OC(=O)OC(C)C (stereo partly shown) [Compound 159]
1 to 10	[N-]=[N+]=NC[C@]1(CO)O[C@@H](n2ccc(N)nc2=O)C(F)(F)[C@@H]1O [Compound 296]
10 to 100	[N-]=[N+]=NC[C@]1(CO)O[C@@H](n2ccc(N)nc2=O)[C@@H](O)[C@@H]1O [Compound 297]

target: human rhinovirus 16 polymerase (HRV16pol) (Human rhinovirus 16, UniProt Q82122); assay: biochemical; conditions: not given
Sequence (Q82122 1694-2153 limits assumed): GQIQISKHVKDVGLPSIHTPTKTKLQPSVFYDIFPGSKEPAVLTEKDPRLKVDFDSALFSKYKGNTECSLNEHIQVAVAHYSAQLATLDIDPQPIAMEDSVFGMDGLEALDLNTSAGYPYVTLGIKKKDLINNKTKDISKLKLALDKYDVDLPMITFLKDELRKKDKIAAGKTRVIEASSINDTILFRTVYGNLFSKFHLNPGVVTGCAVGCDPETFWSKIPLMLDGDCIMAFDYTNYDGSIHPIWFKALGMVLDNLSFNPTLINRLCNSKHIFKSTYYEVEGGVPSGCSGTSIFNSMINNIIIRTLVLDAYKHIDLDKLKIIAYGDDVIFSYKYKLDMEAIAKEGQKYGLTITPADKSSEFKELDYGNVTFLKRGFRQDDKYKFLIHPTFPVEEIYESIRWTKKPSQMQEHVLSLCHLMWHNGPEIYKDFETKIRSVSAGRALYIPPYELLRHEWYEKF

SMILES	IC50 [µM]
C[C@@]1(O)[C@H](O)[C@@](CF)(CO[P@](O)(=S)OP(=O)(O)OP(=O)(O)O)O[C@H]1n1ccc(=O)[nH]c1=O [Compound 97]	< 10

same assay, conditions: HRV16pol, 2.5 h at 30° C., mean of several independent experiments; read-out: IC50

IC50 [µM]	SMILES
< 10	C[C@]1(O)[C@H](n2ccc(=O)[nH]c2=O)O[C@](C)(COP(=O)(O)OP(=O)(O)OP(=O)(O)O)[C@H]1O [compound 58]
< 1	[N-]=[N+]=NC[C@]1(COP(=O)(O)OP(=O)(O)OP(=O)(O)O)O[C@@H](n2ccc(N)nc2=O)[C@H](F)[C@@H]1O [compound 107]
< 10	Nc1ccn([C@@H]2O[C@@](COP(=O)(O)OP(=O)(O)OP(=O)(O)O)(C(F)F)[C@H](O)[C@@H]2F)c(=O)n1 [compound 168]
< 1	C#C[C@@]1(O)[C@H](O)[C@@H](COP(=O)(O)OP(=O)(O)OP(=O)(O)O)O[C@H]1n1cnc2c(N)ncnc21 [compound 202]
< 10	C#C[C@]1(F)[C@H](n2ccc(=O)[nH]c2=O)O[C@](F)(COP(=O)(O)OP(=O)(O)OP(=O)(O)O)[C@H]1O [compound 215]
< 1	N#C[C@@]1(n2ccc(=O)[nH]c2=O)O[C@](CF)(COP(=O)(O)OP(=O)(O)OP(=O)(O)O)[C@@H](O)[C@H]1O [compound 237]
< 10	N#C[C@@]1(n2ccc(N)nc2=O)O[C@](CF)(COP(=O)(O)OP(=O)(O)OP(=O)(O)O)[C@@H](O)[C@H]1O [compound 238]
< 10	C#C[C@@]1(n2cnc3c(=O)[nH]c(N)nc32)O[C@H](COP(=O)(O)OP(=O)(O)OP(=O)(O)O)[C@@H](O)[C@H]1F [compound 242]
< 10	C=C[C@@]1(O)[C@H](O)[C@@](CF)(COP(=O)(O)OP(=O)(O)OP(=O)(O)O)O[C@H]1n1ccc(=O)[nH]c1=O [compound 251]
< 10	O=c1ccn([C@@H]2O[C@](F)(COP(=O)(O)OP(=O)(O)OP(=O)(O)O)[C@@H](O)[C@]2(O)CF)c(=O)[nH]1 [compound 257]
< 10	[N-]=[N+]=NC[C@]1(COP(=O)(O)OP(=O)(O)OP(=O)(O)O)O[C@@H](n2ccc(N)nc2=O)C(F)(F)[C@@H]1O [compound 274]
< 10	[N-]=[N+]=NC[C@]1(COP(=O)(O)OP(=O)(O)OP(=O)(O)O)O[C@@H](n2ccc(N)nc2=O)[C@H](O)[C@@H]1O [compound 275]

SMILES	IC50 [µM]
C#C[C@]1(O)[C@H](n2cnc3c(N)ncnc32)O[C@](C)(COP(=O)(O)OP(=O)(O)OP(=O)(O)O)[C@H]1O [compound 59]	< 100
C#C[C@@]1(O)[C@H](O)[C@@](CF)(COP(=O)(O)OP(=O)(O)OP(=O)(O)O)O[C@H]1n1ccc(=O)[nH]c1=O [compound 61]	< 1
C=C[C@]1(COP(=O)(O)OP(=O)(O)OP(=O)(O)O)O[C@@H](n2ccc(=O)[nH]c2=O)C(F)(F)[C@@H]1O [compound 72]	< 100
O=c1ccn([C@@H]2O[C@](CCl)(COP(=O)(O)OP(=O)(O)OP(=O)(O)O)[C@@H](O)C2(F)F)c(=O)[nH]1 [compound 73]	< 10
C=C[C@]1(COP(=O)(O)OP(=O)(O)OP(=O)(O)O)O[C@@H](n2ccc(N)nc2=O)C(F)(F)[C@@H]1O [compound 79]	< 10
Nc1ccn([C@@H]2O[C@](CF)(COP(=O)(O)OP(=O)(O)OP(=O)(O)O)[C@@H](O)C2(F)F)c(=O)n1 [compound 82]	< 1
C#C[C@@]1(O)[C@H](O)[C@@](CF)(COP(=O)(O)OP(=O)(O)OP(=O)(O)O)O[C@H]1n1cnc2c(N)ncnc21 [compound 93]	< 1

target: NS5B570-Con1 (Delta-21) (Hepatitis C virus genotype 1b, UniProt Q9WMX2); assay: biochemical; set-up: species or system HCV; conditions: not given

SMILES	IC50 [µM]
C[C@@]1(O)[C@H](O)[C@@](CF)(CO[P@@](O)(=S)OP(=O)(O)OP(=O)(O)O)O[C@H]1n1ccc(=O)[nH]c1=O [Compound 98]	10 to 100
C#C[C@]1(O)[C@H](n2cnc3c(N)ncnc32)O[C@](C)(COP(=O)(O)OP(=O)(O)OP(=O)(O)O)[C@H]1O [compound 59]	1 to 10
C#C[C@@]1(O)[C@H](O)[C@@](CF)(COP(=O)(O)OP(=O)(O)OP(=O)(O)O)O[C@H]1n1ccc(=O)[nH]c1=O [compound 61]	< 1
C=C[C@]1(COP(=O)(O)OP(=O)(O)OP(=O)(O)O)O[C@@H](n2ccc(=O)[nH]c2=O)C(F)(F)[C@@H]1O [compound 72]	10 to 100
O=c1ccn([C@@H]2O[C@](CCl)(COP(=O)(O)OP(=O)(O)OP(=O)(O)O)[C@@H](O)C2(F)F)c(=O)[nH]1 [compound 73]	10 to 100
C=C[C@]1(COP(=O)(O)OP(=O)(O)OP(=O)(O)O)O[C@@H](n2ccc(N)nc2=O)C(F)(F)[C@@H]1O [compound 79]	10 to 100
Nc1ccn([C@@H]2O[C@](CF)(COP(=O)(O)OP(=O)(O)OP(=O)(O)O)[C@@H](O)C2(F)F)c(=O)n1 [compound 82]	10 to 100
C#C[C@@]1(O)[C@H](O)[C@@](CF)(COP(=O)(O)OP(=O)(O)OP(=O)(O)O)O[C@H]1n1cnc2c(N)ncnc21 [compound 93]	10 to 100
C#C[C@@]1(O)[C@H](O)[C@@H](COP(=O)(O)OP(=O)(O)OP(=O)(O)O)O[C@H]1n1cnc2c(=O)[nH]c(N)nc21 [compound 203]	< 1
C[C@@]1(Cl)[C@H](O)[C@@](CF)(COP(=O)(O)OP(=O)(O)OP(=O)(O)O)O[C@H]1n1ccc(=O)[nH]c1=O [compound 210]	1 to 10
